These results are taken from patent US11898114B2, “Reactions and methods for producing fuels” (Alliance for Sustainable Energy, LLC, priority 2020, dated 2024).

The conditions of series [1]: literature values (Fioroni, et al.; Lautenschütz, et al.); cited from earlier work.
The nature of series [2]: Flash point (ASTM D7094-17a neat; D6450-16a blends). In kind it is physicochemical. Conditions: measured. Here is the method:
(§1) Boiling point range of the target product was determined by a thermogravimetric analysis (TGA) based simulated distillation. Distillation temperatures were not determined via the standard method for diesel fuel, ASTM D86, due to the limited volume of sample available and gas chromatography based simulated distillation was not utilized given the relatively polar nature of POMEs. Analysis was conducted using a CAHN TG-131 TGA under flowing nitrogen with a ramp rate of 50° C./min from 25 to 550° C. The sample size was ca. 250 mg. The distillation parameters were selected to generate curves that closely matched ASTM D86 distillation values. […] Cloud point was measured using a Phase Technology Series 70X according to ASTM D5773; the method uncertainty is typically ±2.5° C. Flash point was measured according to ASTM D7094-17a with a method reproducibility stated as ±5.5° C. Indicated cetane number (ICN) was measured using an Advanced Fuel Ignition Delay Analyzer (AFIDA) instrument according to ASTM D8183-18 and where reproducibility is calculated as ±0.006407(ICN)^1.47. Higher heating value (HHV) and lower heating value (LHV) were determined according to ASTM D240-19 with a method reproducibility of ±0.4 MJ/kg.
(§2) Higher heating value (HHV) and lower heating value (LHV) were determined according to ASTM D240-19 with a method reproducibility of ±0.4 MJ/kg. […] Lubricity was measured using ASTM D6079-18. […]

For series [3] the following is noted: literature values (Fioroni, et al.; Lautenschütz, et al.); cited from earlier work. This is another data set of the same source.
Series [4] is described as follows: Boiling point range (TGA-based simulated distillation). In kind it is physicochemical. Conditions: neat. Here is the method: Boiling point range of the target product was determined by a thermogravimetric analysis (TGA) based simulated distillation. Distillation temperatures were not determined via the standard method for diesel fuel, ASTM D86, due to the limited volume of sample available and gas chromatography based simulated distillation was not utilized given the relatively polar nature of POMEs. Analysis was conducted using a CAHN TG-131 TGA under flowing nitrogen with a ramp rate of 50° C./min from 25 to 550° C. The sample size was ca. 250 mg. The distillation parameters were selected to generate curves that closely matched ASTM D86 distillation values. The results of this method were validated using a standard fuel oil designed for validating ASTM D86 (Accustandard). Cloud point was measured using a Phase Technology Series 70X according to ASTM D5773; the method uncertainty is typically ±2.5° C. Flash point was measured according to ASTM D7094-17a with a method reproducibility stated as ±5.5° C. Indicated cetane number (ICN) was measured using an Advanced Fuel Ignition Delay Analyzer (AFIDA) instrument according to ASTM D8183-18 and where reproducibility is calculated as ±0.006407(ICN)^1.47. Higher heating value (HHV) and lower heating value (LHV) were determined according to ASTM D240-19 with a method reproducibility of ±0.4 MJ/kg.

Series [5] can be described thus: Water solubility (extraction into water, TOC and GC-MS-FID). In kind it is physicochemical. The conditions noted are these: component of B*POME1-6 extracted into water, 1:5 water:B*POME1-6. Here is the method:
The aqueous layer was then analyzed by total organic carbon (TOC) to determine the amount of the fuel product that was extracted into water. […] The concentration of each component was approximated from the FID response to estimate both the total amount of fuel product and relative solubility of individual components. […] Aqueous phases were diluted 1:2 with methanol. An Agilent 8890 GC/FID—5977B MS system was used for analysis. A volume of 1.0 μL was injected into a split/splitless inlet set to 275° C. and a split ratio of 1:100. Compounds were separated using an Rtx-50 column (50% phenyl polydimethylsiloxane, Restek) of dimensions 30 m×0.25 mm×0.25 μm with a helium carrier gas at a flow rate of 1.0 mL/min. A post column splitter was used to divert column effluent simultaneously to FID and MS detectors for qualitative and quantitative analysis. The GC oven temperature was held at 40° C. for 2 minutes, then ramped to 140° C. at 7° C./min, followed by a ramp to 290° C. at 12° C./min and held for 10 minutes. The MS transfer line and FID temperatures were set to 350° C. The MS detector was operated in continuous scan mode from m/z 29 to 300. The FID response was calibrated using a standard of 2,5-dimethylfuran prepared gravimetrically in acetone.

The conditions of series [6]: literature values (Fioroni, et al.; Lautenschütz, et al.; reported); cited from earlier work.
A short description of series [7]: Lower heating value (ASTM D240-19). In kind it is physicochemical. The conditions noted are these: neat, measured. As for the experimental part:
as §1, §2

Like-named read-outs stand apart in the source and are kept apart here. Marks after values point to notes of the source that are not given here.

Take `CCCCOCOCCCC` [BB-POME1, dibutoxymethane]: the Boiling point in series [1] is 187^$ °C. Also, the Flash point in series [2] is 62 °C; in series [3] it was 62^$ °C. The “Boiling point / boiling range” value in series [4] was 179 °C. In addition, the “Aqueous layer concentration of component” value in series [5] was 0.2 g/L.

For the compound `CCCCOCOCOCCCC` [BB-POME2], the “Aqueous layer concentration of component” value in series [5] is on record as 0.1 g/L.

With `CCOCOCC` [EE-POME1], in series [6], the LHV is recorded as 29^# MJ/kg.

As to `CCOCOCOCC` [EE-POME2], the LHV in series [6] is given as 26^# MJ/kg.

As to `CCOCOCOCOCC` [EE-POME3], the LHV in series [7] is 24 mJ/kg; in series [6] it was 24^# MJ/kg. In series [2], the Flash point turned out to be 68 °C. For the same compound, in series [4], the “Boiling point / boiling range” value is 185 °C.

`CCOCOCOCOCOCC` [EE-POME4]: in series [6], the LHV was 23^# MJ/kg.

Consider `CCCCOCOCOC` [MB-POME2], for which the “Aqueous layer concentration of component” value in series [5] is reported as 2.4 g/L.

Regarding `CCCCOCOCOCOC` [MB-POME3], the “Aqueous layer concentration of component” value in series [5] was 1.1 g/L.

Consider `CCCCOCOCOCOCOC` [MB-POME4], for which, in series [5], the “Aqueous layer concentration of component” value is given as 0.4 g/L.

Consider `CCCCOCOCOCOCOCOC` [MB-POME5], for which the “Aqueous layer concentration of component” value in series [5] worked out at 0.1 g/L.

`COCOC` [MM-POME1, methylal]: the LHV in series [6] is given as 23^# MJ/kg.

Consider `COCOCOC` [MM-POME2], for which the “Aqueous layer concentration of component” value in series [5] amounted to 0.6 g/L.

As for `COCOCOCOC` [MM-POME3], in series [1], the Boiling point was 156^# °C. In addition, in series [3], the Flash point was 54^# °C.

In the case of `COCOCOCOCOC` [MM-POME4], the Boiling point in series [1] is 202^# °C. Also, the Flash point in series [3] was 88^# °C. Moreover, in series [5], the “Aqueous layer concentration of component” value was determined as 1.5 g/L.

With `COCOCOCOCOCOC` [MM-POME5], in series [1], the Boiling point was 242^# °C. Besides, the LHV in series [6] is listed as 19^# MJ/kg. The Flash point in series [3] was 115^# °C. Moreover, the “Aqueous layer concentration of component” value in series [5] is listed as 1.1 g/L.

In the case of `COCOCOCOCOCOCOC` [MM-POME6], the “Aqueous layer concentration of component” value in series [5] worked out at 0.5 g/L.

As to `CCO` [ethanol], the LHV in series [6] was 26.8 mJ/kg.
